We go through 18 compounds from BindingDB's records for doi:10.1016/0014-2999(89)90802-9 (Virginia Commonwealth University, 1989).

The target of assay [1] is T1, 5-hydroxytryptamine receptor 3A (Rattus norvegicus, UniProt P35563).
T1 sequence (P35563 whole entry): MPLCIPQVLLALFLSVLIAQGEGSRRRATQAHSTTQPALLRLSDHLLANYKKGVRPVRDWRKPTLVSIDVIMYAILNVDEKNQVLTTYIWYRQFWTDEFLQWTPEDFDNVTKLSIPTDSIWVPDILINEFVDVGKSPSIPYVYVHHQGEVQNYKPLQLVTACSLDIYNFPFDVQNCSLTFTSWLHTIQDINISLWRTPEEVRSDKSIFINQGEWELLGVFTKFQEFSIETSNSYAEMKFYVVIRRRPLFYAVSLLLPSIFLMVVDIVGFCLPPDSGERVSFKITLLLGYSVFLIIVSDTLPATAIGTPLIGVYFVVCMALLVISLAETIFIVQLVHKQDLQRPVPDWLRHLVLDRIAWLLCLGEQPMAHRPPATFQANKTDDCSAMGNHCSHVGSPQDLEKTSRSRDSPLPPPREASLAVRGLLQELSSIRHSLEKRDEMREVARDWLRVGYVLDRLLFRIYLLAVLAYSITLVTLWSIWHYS

Assay [2] concerns the target 5-hydroxytryptamine receptor 2A (Rattus norvegicus, UniProt P14842).
The target of assay [3] is 5-hydroxytryptamine receptor 1B (Rattus norvegicus, UniProt P28564).
5-hydroxytryptamine receptor 1B, sequence (P28564 whole entry): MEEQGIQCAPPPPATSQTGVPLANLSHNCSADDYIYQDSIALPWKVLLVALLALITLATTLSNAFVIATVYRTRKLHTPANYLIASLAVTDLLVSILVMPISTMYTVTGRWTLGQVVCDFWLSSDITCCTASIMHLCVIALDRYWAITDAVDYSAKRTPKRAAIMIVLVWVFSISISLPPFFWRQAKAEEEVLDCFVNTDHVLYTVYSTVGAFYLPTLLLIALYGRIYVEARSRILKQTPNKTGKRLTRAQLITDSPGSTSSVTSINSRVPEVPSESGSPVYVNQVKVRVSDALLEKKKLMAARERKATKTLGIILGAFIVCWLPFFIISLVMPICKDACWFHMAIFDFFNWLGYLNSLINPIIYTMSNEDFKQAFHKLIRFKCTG
The target of assay [4] is T2, Solute carrier family 22 member 1 (Rattus norvegicus, UniProt Q63089).
T2 sequence (Q63089 whole entry): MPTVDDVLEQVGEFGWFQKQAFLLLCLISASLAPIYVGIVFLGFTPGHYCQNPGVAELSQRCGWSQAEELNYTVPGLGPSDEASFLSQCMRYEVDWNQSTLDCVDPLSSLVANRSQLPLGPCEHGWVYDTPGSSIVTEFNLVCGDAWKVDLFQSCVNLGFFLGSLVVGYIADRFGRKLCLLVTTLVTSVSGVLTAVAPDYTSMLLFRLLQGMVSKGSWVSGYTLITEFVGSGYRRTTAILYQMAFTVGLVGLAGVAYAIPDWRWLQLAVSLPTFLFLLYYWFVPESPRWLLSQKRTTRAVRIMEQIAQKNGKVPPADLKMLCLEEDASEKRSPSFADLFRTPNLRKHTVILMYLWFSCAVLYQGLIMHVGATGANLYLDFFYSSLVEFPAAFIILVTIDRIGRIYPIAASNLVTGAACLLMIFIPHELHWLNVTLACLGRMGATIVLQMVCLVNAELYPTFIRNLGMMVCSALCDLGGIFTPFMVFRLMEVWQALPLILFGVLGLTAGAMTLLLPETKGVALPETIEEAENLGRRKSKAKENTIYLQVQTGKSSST

In assay [5] the target is T3, Solute carrier family 22 member 2 (Rattus norvegicus, UniProt Q9R0W2).
T3 sequence (Q9R0W2 whole entry): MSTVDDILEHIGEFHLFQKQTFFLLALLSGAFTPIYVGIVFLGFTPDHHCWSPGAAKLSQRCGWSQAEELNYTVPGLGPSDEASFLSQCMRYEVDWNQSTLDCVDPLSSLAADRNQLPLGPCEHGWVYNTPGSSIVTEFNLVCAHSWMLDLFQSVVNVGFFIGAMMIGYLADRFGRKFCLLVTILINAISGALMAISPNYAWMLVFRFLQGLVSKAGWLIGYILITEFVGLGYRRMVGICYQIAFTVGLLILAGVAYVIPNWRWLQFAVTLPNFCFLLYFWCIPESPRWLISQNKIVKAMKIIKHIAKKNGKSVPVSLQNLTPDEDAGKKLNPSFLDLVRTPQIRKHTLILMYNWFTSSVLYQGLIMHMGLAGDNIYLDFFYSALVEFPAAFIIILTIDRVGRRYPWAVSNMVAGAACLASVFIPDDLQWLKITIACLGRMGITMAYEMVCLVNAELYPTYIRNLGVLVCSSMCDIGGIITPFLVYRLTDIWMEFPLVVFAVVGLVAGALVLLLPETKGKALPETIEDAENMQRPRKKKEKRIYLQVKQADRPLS

Assay [6] has as its target T4, Muscarinic acetylcholine receptor M2 (Rattus norvegicus, UniProt P10980).
T4 sequence (P10980 whole entry): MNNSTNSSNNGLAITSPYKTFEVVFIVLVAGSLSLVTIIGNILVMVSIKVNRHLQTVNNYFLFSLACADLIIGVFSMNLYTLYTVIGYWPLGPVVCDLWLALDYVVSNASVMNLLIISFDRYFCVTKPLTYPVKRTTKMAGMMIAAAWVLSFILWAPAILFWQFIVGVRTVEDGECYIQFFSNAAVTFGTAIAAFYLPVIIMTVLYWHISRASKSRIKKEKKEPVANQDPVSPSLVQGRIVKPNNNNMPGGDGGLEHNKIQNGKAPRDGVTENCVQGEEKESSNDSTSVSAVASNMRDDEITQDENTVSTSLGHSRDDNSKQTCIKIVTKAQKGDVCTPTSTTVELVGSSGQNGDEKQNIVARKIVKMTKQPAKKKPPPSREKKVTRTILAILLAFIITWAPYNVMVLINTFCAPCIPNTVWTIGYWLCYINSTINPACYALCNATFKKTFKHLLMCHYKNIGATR

For assay [7], the target named is Beta-2 adrenergic receptor (Rattus norvegicus, UniProt P10608).
Beta-2 adrenergic receptor, sequence (P10608 whole entry): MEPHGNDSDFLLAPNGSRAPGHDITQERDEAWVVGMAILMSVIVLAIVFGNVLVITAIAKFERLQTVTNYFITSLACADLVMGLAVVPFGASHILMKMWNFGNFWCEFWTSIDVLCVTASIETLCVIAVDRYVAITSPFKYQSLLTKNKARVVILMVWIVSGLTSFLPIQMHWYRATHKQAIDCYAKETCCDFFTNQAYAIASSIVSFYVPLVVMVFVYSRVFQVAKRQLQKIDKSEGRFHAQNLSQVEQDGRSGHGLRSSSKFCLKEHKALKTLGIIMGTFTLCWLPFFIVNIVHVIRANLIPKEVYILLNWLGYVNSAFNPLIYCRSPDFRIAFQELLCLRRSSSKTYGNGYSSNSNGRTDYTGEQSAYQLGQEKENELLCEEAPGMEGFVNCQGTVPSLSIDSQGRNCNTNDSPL
The target in assay [8] is T5, 5-hydroxytryptamine receptor 1A (Rattus norvegicus, UniProt P19327).
T5 sequence (P19327 whole entry): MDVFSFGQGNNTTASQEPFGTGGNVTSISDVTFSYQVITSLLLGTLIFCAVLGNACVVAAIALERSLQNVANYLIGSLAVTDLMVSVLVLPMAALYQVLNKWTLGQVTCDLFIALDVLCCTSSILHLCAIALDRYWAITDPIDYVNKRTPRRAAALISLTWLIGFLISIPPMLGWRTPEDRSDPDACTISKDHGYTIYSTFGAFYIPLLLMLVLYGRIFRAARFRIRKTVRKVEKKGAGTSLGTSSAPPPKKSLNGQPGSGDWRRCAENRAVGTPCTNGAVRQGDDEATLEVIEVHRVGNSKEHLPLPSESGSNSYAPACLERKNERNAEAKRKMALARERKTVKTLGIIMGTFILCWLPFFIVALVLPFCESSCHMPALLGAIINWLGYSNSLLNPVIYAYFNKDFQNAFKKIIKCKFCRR

Assay [9] has as its target T6, Alpha-1A adrenergic receptor (Rattus norvegicus, UniProt P43140).
T6 sequence (P43140 whole entry): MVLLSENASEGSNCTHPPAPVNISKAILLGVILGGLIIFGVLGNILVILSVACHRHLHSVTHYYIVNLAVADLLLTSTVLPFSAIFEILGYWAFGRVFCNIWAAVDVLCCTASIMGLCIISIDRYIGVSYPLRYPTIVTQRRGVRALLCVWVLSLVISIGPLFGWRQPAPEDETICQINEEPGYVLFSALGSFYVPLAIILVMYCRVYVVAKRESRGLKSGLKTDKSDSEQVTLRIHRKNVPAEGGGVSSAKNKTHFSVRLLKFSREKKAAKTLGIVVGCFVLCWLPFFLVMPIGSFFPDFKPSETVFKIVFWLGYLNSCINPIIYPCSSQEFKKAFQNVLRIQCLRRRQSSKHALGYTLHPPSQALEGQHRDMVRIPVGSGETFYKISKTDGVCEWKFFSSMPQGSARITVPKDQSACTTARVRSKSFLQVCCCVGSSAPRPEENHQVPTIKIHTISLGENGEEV

Assay [10] concerns the target Gamma-aminobutyric acid receptor subunit alpha-1 (Rattus norvegicus, UniProt P62813).
In assay [11] the target is T7, Alpha-2C adrenergic receptor (Rattus norvegicus, UniProt P22086).
T7 sequence (P22086 whole entry): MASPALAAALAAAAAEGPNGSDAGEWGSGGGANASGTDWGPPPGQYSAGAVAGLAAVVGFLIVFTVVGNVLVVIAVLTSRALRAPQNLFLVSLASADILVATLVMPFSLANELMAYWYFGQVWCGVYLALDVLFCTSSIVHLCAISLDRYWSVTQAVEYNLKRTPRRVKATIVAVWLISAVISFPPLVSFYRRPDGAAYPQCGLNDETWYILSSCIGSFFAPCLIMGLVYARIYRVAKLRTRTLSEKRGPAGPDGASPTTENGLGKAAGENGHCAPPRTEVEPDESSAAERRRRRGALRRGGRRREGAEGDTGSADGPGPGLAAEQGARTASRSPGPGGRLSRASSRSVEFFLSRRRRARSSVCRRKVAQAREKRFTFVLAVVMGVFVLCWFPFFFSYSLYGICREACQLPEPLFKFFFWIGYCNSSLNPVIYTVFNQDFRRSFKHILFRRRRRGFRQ

What is called Ki is the dissociation constant of the complex between target and ligand, obtained from inhibition or displacement.

The structures appear in SMILES notation.

5-hydroxytryptamine receptor 2A, sequence (P14842 whole entry): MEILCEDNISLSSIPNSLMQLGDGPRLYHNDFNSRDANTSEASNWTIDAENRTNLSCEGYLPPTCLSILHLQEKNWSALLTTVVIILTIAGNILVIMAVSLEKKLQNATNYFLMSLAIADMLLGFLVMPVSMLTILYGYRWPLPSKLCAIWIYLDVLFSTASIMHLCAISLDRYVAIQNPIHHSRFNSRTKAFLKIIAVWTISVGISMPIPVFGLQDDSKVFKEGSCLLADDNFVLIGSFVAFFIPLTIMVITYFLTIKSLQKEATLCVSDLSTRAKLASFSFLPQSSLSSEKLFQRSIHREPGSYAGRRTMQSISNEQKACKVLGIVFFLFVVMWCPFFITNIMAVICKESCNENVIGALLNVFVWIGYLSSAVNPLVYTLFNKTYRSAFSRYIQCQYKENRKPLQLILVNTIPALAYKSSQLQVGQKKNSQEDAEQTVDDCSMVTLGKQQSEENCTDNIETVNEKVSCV
Gamma-aminobutyric acid receptor subunit alpha-1, sequence (P62813 whole entry): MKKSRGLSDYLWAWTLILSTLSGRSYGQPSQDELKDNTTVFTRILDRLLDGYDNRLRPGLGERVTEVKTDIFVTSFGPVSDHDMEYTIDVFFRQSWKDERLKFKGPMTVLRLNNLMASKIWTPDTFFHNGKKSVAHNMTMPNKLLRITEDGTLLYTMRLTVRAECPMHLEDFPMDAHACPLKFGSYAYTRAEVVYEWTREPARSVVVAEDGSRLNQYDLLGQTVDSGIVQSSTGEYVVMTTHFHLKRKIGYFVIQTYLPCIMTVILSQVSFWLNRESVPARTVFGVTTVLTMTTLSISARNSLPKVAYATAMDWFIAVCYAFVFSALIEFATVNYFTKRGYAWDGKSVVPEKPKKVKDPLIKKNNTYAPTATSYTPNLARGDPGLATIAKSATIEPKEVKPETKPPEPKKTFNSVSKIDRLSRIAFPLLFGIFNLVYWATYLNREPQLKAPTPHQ

`COc1ccccc1N1CCNCC1` had a Ki in assay [1] of 324 nM. `Clc1ccc(N2CCNCC2)cc1`: in [1], the affinity, expressed as Ki, was 120 nM.

Regarding `c1ccc(N2CCNCC2)cc1`, the Ki in [1] stood at 430 nM. Compared with the last compound, the Ki is about 3.6-fold higher. `c1ccc2c(N3CCNCC3)cccc2c1` displayed a Ki in [1] of 110 nM. As to `c1ccc(C2CCNCC2)cc1`, the affinity in assay [1] corresponds to a Ki of 440 nM. As for `COc1cccc2ccc(N3CCNCC3)nc12`, the Ki in assay [1] came out at 360 nM. This Ki and that of the compound before are within 1.5-fold of each other. Still for that read-out and setting: with `CCCN(CCC)c1ccc2ccccc2n1` the figure was 1000 nM.

With `c1ccc2nc(N3CCCCC3)ccc2c1`, the affinity in assay [1], expressed as Ki, was 1000 nM. As to `c1cnc(N2CCNCC2)nc1` [1-PP], the affinity in [1] corresponds to a Ki of 4000 nM. For `c1ccc2nc(N3CCNCC3)ccc2c1` [2-Piperazin-1-yl-quinoline (Quipazine)], the Ki was 180 nM in assay [2]; 200 nM in [3]; 1.5 nM in [1]; more than 10000 nM in [4]; 5000 nM in assay [5]; more than 10000 nM in assay [6]. Further, affinity in [7] was put at a Ki of 2900 nM.

Consider `COc1ccc(N2CCNCC2)cc1` [4-METHOXYPHENYLPIPERAZINE], for which, in assay [1], the Ki amounted to 340 nM.

In assay [1], `COc1cccc2ccc(N3CCN(C)CC3)nc12` [8-Methoxy-N-methylquipazine] showed a Ki of 440 nM. For the compound `Clc1cncc(N2CCNCC2)n1` [L-630,571], in [1], the affinity, expressed as Ki, was 29 nM. Against the preceding compound, the Ki is about 15-fold lower. Consider `CCCN1CCN(c2ccc3ccccc3n2)CC1` [N-Propylquipazine], for which the Ki in [1] came to 15 nM. In turn, `CN(C)C[C@@H]1C2CCC(CC2)[C@@H]1c1ccc(Cl)c(Cl)c1` [NSC_398] displayed a Ki in assay [1] of 30 nM. The same measure, in the same setting: to `CN1CCN(c2nc3ccccc3c(=O)[nH]2)CC1` [NSC_63211] belongs 270 nM. `Cc1cccc2ccc(N3CCNCC3)nc12` [QUIPAZINE,8-Me]: the Ki was 550 nM in [2]; 1700 nM in assay [8]; more than 10000 nM in assay [3]; more than 10000 nM in assay [9]; more than 10000 nM in assay [10]; 4.7 nM in assay [1]. Besides, the Ki in assay [11] was 3800 nM; in [6], more than 10000 nM; in [7], more than 10000 nM. Turning to `Clc1cccc(N2CCNCC2)c1` [mCPP], the Ki in assay [1] came out at 20 nM.
